Source: ChEMBL document CHEMBL1128125, “Inhibitors of Acyl-CoA:Cholesterol O-acyltransferase (ACAT) as hypocholesterolemic agents 14. synthesis and structure-activity relationships of a novel series of sulfonamide tetrazoles” (Bioorg Med Chem Lett, 1995)

Assays:
[1] = Inhibition of Acyl coenzyme A:cholesterol acyltransferase (ACAT); design: species or system Oryctolagus cuniculus
Rattus norvegicus [2] = assay: Tested in vivo for its effect on changing plasma cholesterol level in rats at a dose of 30 mg/kg; format: functional
Rattus norvegicus [3] = assay: Tested in vivo for its effect on changing plasma cholesterol level in rats at a dose of 3 mg/kg; format: functional

Compound	IC50 [1] [nM]	Delta TC (Rattus norvegicus [2]) [%]	Delta TC (Rattus norvegicus [3]) [%]
CCCCCCCCCCCCCCCCCCn1nnc(CS(=O)(=O)Nc2c(C(C)C)cccc2C(C)C)n1	7600	-31	
CCCCCCCCCCCCn1nnc(C(C)(C)S(=O)(=O)Nc2c(C(C)C)cccc2C(C)C)n1	40	-53	
CCCCCCCCCCCCn1nnc(CC(=O)Nc2c(C(C)C)cccc2C(C)C)n1	2.6	-64	-62
CCCCCCCCCCCCCCCCCC(=O)Nc1c(OC)cc(OC)cc1OC	52	-11	-31
CCCCCCCCCCCCn1nnc(CS(=O)(=O)Nc2c(OC)cc(OC)cc2OC)n1	180	-60	
CCCCCCCCCCCCn1nnc(CS(=O)(=O)Nc2c(C(C)C)cccc2C(C)C)n1	22	-67	-59
CCCCCCCCCCCCn1nnnc1CS(=O)(=O)Nc1c(OC)cc(OC)cc1OC	3700	-30	
CCCCCCCCn1nnc(CS(=O)(=O)Nc2c(C(C)C)cccc2C(C)C)n1	750	-14	
CCCCCCCCCCCCn1nnc(C(C)S(=O)(=O)Nc2c(C(C)C)cccc2C(C)C)n1 (stereo unspecified)	32	-67	
CCCCCCCCCCCCCCn1nnc(CS(=O)(=O)Nc2c(C(C)C)cccc2C(C)C)n1	150	-42	
CCCCCCCCCCCCn1nnc(C(Cc2ccccc2)S(=O)(=O)Nc2c(C(C)C)cccc2C(C)C)n1 (stereo unspecified)	57	-27	
CCCCCCCCCCCCn1nnnc1CS(=O)(=O)Nc1c(C(C)C)cccc1C(C)C	1200	-41	
CCCCCCCCCCCCCCCCn1nnc(CS(=O)(=O)Nc2c(C(C)C)cccc2C(C)C)n1	600	-20	
CCCCCCCCCCCCCCCCS(=O)(=O)Nc1c(OC)cc(OC)cc1OC	690		-31
